Test results from patent publication US20200369728A1, “PEPTIDOMIMETIC MACROCYCLES AND USES THEREOF” (Aileron Therapeutics, Inc., priority 2015, published 2020).
Bridge positions count the residues as written; N and C are the ends. Square brackets hold non-standard residues; d marks the D form. Peptide text beside a SMILES is read from it. R8 = C=CCCCCCC[C@@](C)(N)C(=O)O; S5 = C=CCCC[C@](C)(N)C(=O)O; Nle = CCCC[C@H](N)C(=O)O

Legend:
[1] = system: SJSA-1; test: Cell viability assay (MTT), SJSA-1; conditions: read-out: SJSA-1 EC50 (72 h); 72 h, MTT
[2] = Circular dichroism (CD) analysis of alpha-helicity; format: physicochemical; conditions: for Molar Ellipticity TFE − Molar Ellipticity Benign / Molar Ellipticity 50% TFE (222 in 50% TFE) / Molar Ellipticity Benign (222 in 0% TFE): 222 nm; for Molar Ellipticity 50% TFE (222 in 50% TFE): CD buffer with 50% TFE; for Molar Ellipticity 50% TFE (222 in 50% TFE) / Molar Ellipticity Benign (222 in 0% TFE): 0.05 mg/ml, 4° C.; for Molar Ellipticity Benign (222 in 0% TFE): benign CD buffer (20 mM phosphoric acid, pH 2); for % Helix benign compared to 50% TFE parent (CD): benign buffer
Procedure: Peptide solutions were analyzed by CD spectroscopy using a Jasco J-815 spectropolarimeter (Jasco Inc., Easton, Md.) with the Jasco Spectra Manager Ver. 2 system software. A Peltier temperature controller was used to maintain temperature control of the optical cell. Results are expressed as mean molar ellipticity (deg cm^2 dmol^−1) as calculated from the equation [0]=θobs·MRW/10*l*c where θobs is the observed ellipticity in millidegrees, MRW is the mean residue weight of the peptide (peptide molecular weight/number of residues), 1 is the optical path length of the cell in centimeters, and c is the peptide concentration in mg/ml. Peptide concentrations were determined by amino acid analysis. Stock solutions of peptides were prepared in benign CD buffer (20 mM phosphoric acid, pH 2). The stocks were used to prepare peptide solutions of 0.05 mg/ml in either benign CD buffer or CD buffer with 50% trifluoroethanol (TFE) for analyses in a 10 mm pathlength cell. Variable wavelength measurements of peptide solutions were scanned at 4° C. from 195 to 250 nm, in 0.2 nm increments, and a scan rate 50 nm per minute. The average of six scans was reported.

[3] = system: SJSA-1 cells; test: Cell lysis by peptidomimetic macrocycles (LDH release); format: cell-based; conditions: SJSA-1, 1 h
In short: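 SJSA-1 cells plated the day before, switched to RPMI with 1% FBS, then exposed 1 h at 37 °C to macrocycle at final 50 μM to 6.25 μM in 0.5% DMSO. LDH released into the supernatant was measured by kit. Controls: 0.5% DMSO (non-lytic), 10 μM melittin and 1% Triton X-100 (lytic).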

[4] = system: Caspase 3; test: Caspase 3 detection assay in SJSA1 cells; format: cell-based; conditions: SJSA1, 48 h, Caspase 3 activation over DMSO-treated cells
[5] = system: RKO; test: Cell viability assay (MTT), RKO; conditions: read-out: RKO EC50 (72 h)

| SMILES | % Helix 50% TFE compared to 50% TFE parent (CD) [2] [%] | Molar Ellipticity TFE − Molar Ellipticity Benign [2] [deg cm^2 dmol^−1] | Molar Ellipticity 50% TFE (222 in 50% TFE) [2] [deg cm^2 dmol^−1] | Molar Ellipticity Benign (222 in 0% TFE) [2] [deg cm^2 dmol^−1] | % Helix benign compared to 50% TFE parent (CD) [2] [%] | EC50 [1] [µM] | 6.25 μM % Lysed cells (1 h LDH) [3] [%] | 25 μM % Lysed cells (1 h LDH) [3] [%] | 50 μM % Lysed cells (1 h LDH) [3] [%] | caspase 0.3 μM [4] | caspase 3 μM [4] | caspase 10 μM [4] | caspase 30 μM [4] | EC50 [5] [µM] | caspase 1 μM [4] |
| --- | --- | --- | --- | --- | --- | --- | --- | --- | --- | --- | --- | --- | --- | --- | --- |
| CCCC[C@H](NC(=O)[C@H](C)NC(=O)[C@H](C)NC(=O)[C@]1(C)CCCC=CCCCCCC[C@@](C)(NC(=O)[C@H](Cc2ccccc2)NC(=O)[C@@H](NC(=O)[C@H](CC(C)C)NC(C)=O)[C@@H](C)O)C(=O)N[C@@H](C)C(=O)N[C@@H](Cc2ccc(O)cc2)C(=O)N[C@@H](Cc2c[nH]c3ccccc23)C(=O)N[C@@H](C)C(=O)N[C@@H](CCC(N)=O)C(=O)N[C@@H](CC(C)C)C(=O)N1)C(=O)N[C@@H](C)C(N)=O (single isomer, unassigned) [compound 68] | – | – | – | – | – | < 5 | – | – | – | – | – | – | – | – | – |
| CCCC[C@H](NC(=O)[C@H](C)NC(=O)[C@H](C)NC(=O)[C@]1(C)CCCC=CCCCCCC[C@@](C)(NC(=O)[C@H](Cc2ccccc2)NC(=O)[C@@H](NC(=O)[C@H](CC(C)C)NC(C)=O)[C@@H](C)O)C(=O)N[C@@H](C)C(=O)N[C@@H](Cc2ccc(O)cc2)C(=O)N[C@@H](Cc2c[nH]c3ccccc23)C(=O)N[C@@H](C)C(=O)N[C@@H](CCC(N)=O)C(=O)N[C@@H](CC(C)C)C(=O)N1)C(=O)N[C@H](C)C(N)=O (single isomer, unassigned) [compound 74] | – | – | – | – | – | < 5 | – | – | – | – | – | – | – | – | – |
| CC(=O)N[C@@H](CC(C)C)C(=O)N[C@H](C(=O)N[C@@H](Cc1ccccc1)C(=O)N[C@]1(C)CCCCCCC=CCCC[C@@](C)(C(=O)N[C@@H](C)C(=O)N[C@@H](C)C(=O)N[C@@H](C)C(=O)N[C@@H](C)C(=O)N[C@@H](C)C(=O)N[C@H](C)C(N)=O)NC(=O)[C@H](CC(C)C)NC(=O)[C@H](CCC(N)=O)NC(=O)[C@H](C)NC(=O)[C@H](Cc2c[nH]c3ccccc23)NC(=O)[C@H](Cc2ccc(O)cc2)NC(=O)[C@H](CCC(=O)O)NC1=O)[C@@H](C)O (single isomer, unassigned) [compound 449] | – | – | – | – | – | < 5 | – | – | – | – | – | – | – | – | – |
| CC(=O)N[C@@H](CC(C)C)C(=O)N[C@H](C(=O)N[C@@H](Cc1ccccc1)C(=O)N[C@]1(C)CCCCCCC=CCCC[C@@](C)(C(=O)N[C@@H](C)C(=O)N[C@@H](C)C(=O)N[C@@H](C)C(=O)N[C@H](C)C(=O)N[C@@H](C)C(=O)N[C@H](C)C(N)=O)NC(=O)[C@H](CC(C)C)NC(=O)[C@H](CCC(N)=O)NC(=O)[C@H](C)NC(=O)[C@H](Cc2c[nH]c3ccccc23)NC(=O)[C@H](Cc2ccc(O)cc2)NC(=O)[C@H](CCC(=O)O)NC1=O)[C@@H](C)O (single isomer, unassigned) [compound 571] | – | – | – | – | – | < 5 | – | – | – | – | – | – | – | – | – |
| CC(=O)N[C@@H](CC(C)C)C(=O)N[C@H](C(=O)N[C@@H](Cc1ccccc1)C(=O)N[C@]1(C)CCCCCCC=CCCC[C@@](C)(C(=O)N[C@@H](CO)C(=O)N[C@@H](C)C(=O)N[C@@H](Cc2ccccc2)C(N)=O)NC(=O)[C@H](CC(C)C)NC(=O)[C@H](CCC(N)=O)NC(=O)[C@H](C)NC(=O)[C@H](Cc2c[nH]c3ccccc23)NC(=O)[C@H](Cc2ccc(O)cc2)NC(=O)[C@H](C)NC1=O)[C@@H](C)O [compound 7] (Ac-LTF[R8]AYWAQL[S5]SAF-NH2; staple 4-11) | 137.3 | −20045.4 | −19921.4 | 124 | −0.9 | – | 0 | 0 | 0 | 0.93 | 5.08 | 21.7 | 23.96 | < 5 | 1.4 |
| CC(=O)N[C@@H](CC(C)C)C(=O)N[C@H](C(=O)N[C@@H](Cc1ccccc1)C(=O)N[C@]1(C)CCCCCCC=CCCC[C@@](C)(C(=O)N[C@@H](C)C(=O)N[C@@H](C)C(=O)N[C@@H](C)C(=O)N[C@@H](C)C(=O)N[C@H](C)C(N)=O)NC(=O)[C@H](CC(C)C)NC(=O)[C@H](CCC(N)=O)NC(=O)[C@H](C)NC(=O)[C@H](Cc2c[nH]c3ccccc23)NC(=O)[C@H](Cc2ccc(O)cc2)NC(=O)[C@H](C)NC1=O)[C@@H](C)O [compound 233] | 131.2 | −18554.7 | −19032.6 | −477.9 | 3.3 | – | 2.5 | 3.5 | 6 | 6 | 17 | 22 | 23 | – | 8 |

Further lines, with some results ahead:

| % Helix 50% TFE compared to 50% TFE parent (CD) [2] [%] | Molar Ellipticity TFE − Molar Ellipticity Benign [2] [deg cm^2 dmol^−1] | Molar Ellipticity 50% TFE (222 in 50% TFE) [2] [deg cm^2 dmol^−1] | Molar Ellipticity Benign (222 in 0% TFE) [2] [deg cm^2 dmol^−1] | % Helix benign compared to 50% TFE parent (CD) [2] [%] | SMILES | EC50 [1] [µM] | 6.25 μM % Lysed cells (1 h LDH) [3] [%] | 25 μM % Lysed cells (1 h LDH) [3] [%] | 50 μM % Lysed cells (1 h LDH) [3] [%] | caspase 0.3 μM [4] | caspase 3 μM [4] | caspase 10 μM [4] | caspase 30 μM [4] | EC50 [5] [µM] | caspase 1 μM [4] |
| --- | --- | --- | --- | --- | --- | --- | --- | --- | --- | --- | --- | --- | --- | --- | --- |
| 123.9 | −17760.8 | −17974 | −213.2 | 1.5 | CC(=O)N[C@@H](CC(C)C)C(=O)N[C@H](C(=O)N[C@@H](Cc1ccccc1)C(=O)N[C@]1(C)CCCCCCC=CCCC[C@@](C)(C(=O)N[C@@H](C)C(=O)N[C@@H](C)C(=O)N[C@@H](C)C(=O)N[C@H](C)C(N)=O)NC(=O)[C@H](CC(C)C)NC(=O)[C@H](CCC(N)=O)NC(=O)[C@H](C)NC(=O)[C@H](Cc2c[nH]c3ccccc23)NC(=O)[C@H](Cc2ccc(O)cc2)NC(=O)[C@H](C)NC1=O)[C@@H](C)O (single isomer, unassigned) [compound 230] | – | 0.5 | 0 | 3 | 1 | 2 | 3 | 11 | – | – |
| 106.1 | 16225.2 | −16623.4 | −398.2 | 2.5 | CC(=O)N[C@@H](CC(C)C)C(=O)N[C@H](C(=O)N[C@@H](Cc1ccccc1)C(=O)N[C@]1(C)CCCCCCC=CCCC[C@@](C)(C(=O)N[C@@H](CO)C(=O)N[C@@H](C)C(=O)N[C@@H](C)C(N)=O)NC(=O)[C@H](CC(C)C)NC(=O)[C@H](CCC(N)=O)NC(=O)[C@H](C)NC(=O)[C@H](Cc2c[nH]c3ccccc23)NC(=O)[C@H](Cc2ccc(O)cc2)NC(=O)[C@H](C)NC1=O)[C@@H](C)O [compound 11] (Ac-LTF[R8]AYWAQL[S5]SAA-NH2; staple 4-11) | – | −2 | 2 | 3 | 1 | 5 | 23 | 33.5 | < 5 | – |
| 136 | – | −21319.4 | −909 | 5.8 | CCCC[C@H](NC(=O)[C@H](CCC(N)=O)NC(=O)[C@H](CCC(N)=O)NC(=O)[C@]1(C)CCCC=CCCCCCC[C@@](C)(NC(=O)[C@H](Cc2ccccc2)NC(C)=O)C(=O)N[C@@H](C)C(=O)N[C@@H](Cc2ccc(O)cc2)C(=O)N[C@@H](Cc2c[nH]c3ccccc23)C(=O)N[C@@H]([C@@H](C)O)C(=O)N[C@@H](C)C(=O)N[C@@H](CC(C)C)C(=O)N1)C(=O)N[C@@H](C(N)=O)C(C)C [compound 41] (Ac-F[R8]AYWTAL[S5]QQ[Nle][dV]-NH2; staple 2-9) | – | – | – | – | – | – | – | – | – | – |
| 116.4 | 2912.9 | −18247.4 | −15334.5 | 97.8 | CC(=O)N[C@@H](CC(C)C)C(=O)N[C@H](C(=O)N[C@@H](Cc1ccccc1)C(=O)N[C@]1(C)CCCCCCC=CCCC[C@@](C)(C(=O)N[C@@H](Cc2c[nH]cn2)C(=O)N[C@@H](Cc2c[nH]cn2)C(=O)N[C@@H](CC(C)C)C(=O)N[C@H](C)C(N)=O)NC(=O)[C@H](CC(C)C)NC(=O)[C@H](CCC(N)=O)NC(=O)[C@H](C)NC(=O)[C@H](Cc2c[nH]c3ccccc23)NC(=O)[C@H](Cc2ccc(O)cc2)NC(=O)[C@H](C)NC1=O)[C@@H](C)O [compound 43] (Ac-LTF[R8]AYWAQL[S5]HHL[dA]-NH2; staple 4-11) | – | 0 | −1 | −1 | – | – | – | – | – | – |
